Source: patent US6774132B1, “Spirooxindole derivatives that act as analgesics” (AstraZeneca AB, priority 1999, dated 2004)

CCCN1CCCC2(C1)NC(=O)c1ccccc12.Cl (stereo not shown)
melting point: 110 to 112 °C
